{"source": "patent EP0025842B1", "about": "“Peptides, process for their preparation, their pharmaceutical compositions and their intermediates” (FUJISAWA PHARMACEUTICAL CO., LTD., priority 1979, dated 1987)", "key": {"mice": {"tested_on": "mice", "assay": "Acute toxicity in mice", "type": "in vivo", "conditions": "1 g/kg (i.v.)", "from_the_text": "7. Acute toxicity in mice of FR-900156 1 g/kg (i.v.): no toxicity"}, "mouse L cell": {"tested_on": "mouse L cell", "assay": "Cell toxicity (mouse L cell)", "type": "cell-based", "conditions": "500 µg/ml"}}}
{"smiles": "C[C@H](NC(=O)[C@@H](C)O)C(=O)N[C@H](CCC(=O)N[C@@H](CCC[C@@H](N)C(=O)O)C(=O)NCC(=O)O)C(=O)O", "note": "[FR-900156, D-Lactyl-L-alanyl-γ-D-glutamyl-(L)-mesodiaminopimelyl(L)-glycine]", "values": [{"measurement": "Acute toxicity in mice", "setting": "mice", "result": "no toxicity"}, {"measurement": "Cell toxicity (mouse L cell)", "setting": "mouse L cell", "result": "no toxic effect"}]}
